Data as given in ChEMBL document CHEMBL1201862, “PubChem BioAssay data set” (2004).
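Method: 48-hour compound exposure of cells in 96-well plates, five concentrations, linear interpolation of endpoints. The concentration for 50% growth inhibition is given as GI50.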 Active and inactive are the calls of the source. Rule as the data show it: active = GI50 up to about 1.1 µM and inactive = higher. Non-standard residues stand in square brackets, D forms with d. Residues, ends and D or L forms follow the SMILES beside them. *: point of attachment. Ac5c = NC1(C(=O)O)CCCC1; Cbz = O=C(OCc1ccccc1)*; Boc = CC(C)(C)OC(=O)*; tBu = CC(C)(C)*

How the values were obtained:
Assay in all cases: NCI-60 cell line screen, 48 h
[1] = system: A498
[2] = system: HL-60
[3] = system: Malme-3M
[4] = system: SK-MEL-5
[5] = system: NCI/ADR-RES
[6] = system: SF-268
[7] = system: UACC-257
[8] = system: RXF 393
[9] = system: MDA-MB-231
[10] = system: U-251
[11] = system: Hs-578T
[12] = system: SK-MEL-2
[13] = system: HOP-62
[14] = system: SF-539
[15] = system: UACC-62
[16] = system: IGROV-1
[17] = system: NCI-H226
[18] = system: T47D
[19] = system: COLO 205
[20] = system: SNB-19
[21] = system: HCT-15
[22] = system: CCRF-CEM
[23] = system: M14
[24] = system: NCI-H460
[25] = system: OVCAR-3
[26] = system: SW-620
[27] = system: OVCAR-5
[28] = system: ACHN
[29] = system: KM12
[30] = system: SK-MEL-28
[31] = system: K562
[32] = system: OVCAR-4
[33] = system: NCI-H522
[34] = system: 786-0
[35] = system: EKVX
[36] = system: HOP-92
[37] = system: HCC 2998
[38] = system: SNB-75
[39] = system: SR
[40] = system: A549
[41] = system: SF-295
[42] = system: PC-3
[43] = system: UO-31
[44] = system: DU-145
[45] = system: HT-29
[46] = system: RPMI-8226
[47] = system: OVCAR-8
[48] = system: CAKI-1
[49] = system: MDA-N
[50] = system: HCT-116
[51] = system: MCF7
[52] = system: LOX IMVI
[53] = system: SK-OV-3
[54] = system: TK-10
[55] = system: SN12C
[56] = system: NCI-H23
[57] = system: MDA-MB-435

In the case of COC(=O)C1(NC(=O)C(Cc2ccccc2)NC(=O)C(NC(=O)C(CCCCNC(=O)OC(C)(C)C)NC(=O)C(Cc2c[nH]c3ccccc23)NC(=O)C(Cc2ccccc2)NC(=O)OCc2ccccc2)C(C)OC(C)(C)C)CCCC1 (configuration not stated) (Cbz-FWK(Boc)T(tBu)F[Ac5c]-OMe; configuration not given here), the GI50 [1] is reported as > 10 µM (inactive), the GI50 [2] is reported as > 100 µM (inactive) and the GI50 [3] is reported as > 100 µM (inactive). For the same molecule, the GI50 [4] was 3.96 µM (inactive), the GI50 [5] was > 100 µM (inactive) and the GI50 [6] was > 100 µM (inactive). The GI50 [7] was > 100 µM (inactive), the GI50 [8] was > 100 µM (inactive) and the GI50 [9] was 25.9 µM (inactive). The GI50 [10] was 34 µM (inactive), the GI50 [11] was > 100 µM (inactive) and the GI50 [12] was 6.61 µM (inactive). The GI50 [13] was 65 µM (inactive), the GI50 [14] was > 10 µM (inactive) and the GI50 [15] was > 100 µM (inactive). The GI50 [16] was 88.1 µM (inactive), the GI50 [17] was > 100 µM (inactive) and the GI50 [18] was 24.6 µM (inactive). For the same molecule, the GI50 [19] was > 100 µM (inactive), the GI50 [20] was 52.2 µM (inactive) and the GI50 [21] was over 100 µM. The GI50 [22] was 98.9 µM (inactive), the GI50 [23] was 18.9 µM (inactive) and the GI50 [24] was > 100 µM (inactive). For the same molecule, the GI50 [25] was > 100 µM (inactive), the GI50 [26] was 51.6 µM (inactive) and the GI50 [27] was 64.1 µM (inactive). For the same molecule, the GI50 [28] was > 100 µM (inactive), the GI50 [29] was > 100 µM (inactive) and the GI50 [30] was > 100 µM (inactive). For the same molecule, the GI50 [31] was > 100 µM (inactive), the GI50 [32] was > 100 µM (inactive) and the GI50 [33] was 19 µM (inactive). For the same molecule, the GI50 [34] was > 100 µM (inactive), the GI50 [35] was > 100 µM (inactive) and the GI50 [36] was 68.9 µM (inactive). For the same molecule, the GI50 [37] was > 100 µM (inactive), the GI50 [38] was > 100 µM (inactive) and the GI50 [39] was > 100 µM (inactive). The GI50 [40] was > 100 µM (inactive), the GI50 [41] was > 100 µM (inactive) and the GI50 [42] was > 100 µM (inactive). For the same molecule, the GI50 [43] was > 100 µM (inactive), the GI50 [44] was > 100 µM (inactive) and the GI50 [45] was > 100 µM (inactive). The GI50 [46] was > 100 µM (inactive), the GI50 [47] was > 100 µM (inactive) and the GI50 [48] was > 100 µM (inactive). The GI50 [49] was > 100 µM (inactive), the GI50 [50] was > 100 µM (inactive) and the GI50 [51] was > 100 µM (inactive). For the same molecule, the GI50 [52] was 80.9 µM (inactive), the GI50 [53] was 93.3 µM (inactive) and the GI50 [54] was > 100 µM (inactive). For the same molecule, the GI50 [55] was > 100 µM (inactive), the GI50 [56] was > 100 µM (inactive) and the GI50 [57] was > 100 µM (inactive).
